Experimental data: ChEMBL document CHEMBL4359907, “Scalable and cost-effective tosylation-mediated synthesis of antifungal and fungal diagnostic 6″-Modified amphiphilic kanamycins” (Eur J Med Chem, 2019)
Values after ≈ are worked out from the molar mass of the structure shown.

Key:
[1] = tested on: Staphylococcus aureus; assay: Antibacterial activity against methicillin-resistant Staphylococcus aureus ATCC 33591 incubated for 18 hrs by two fold dilution method; assay type: functional; conditions: ATCC 33591, 18 h
[2] = tested on: Candida parapsilosis; assay: Antifungal activity against azole-resistant Candida parapsilosis Cas08-0490 incubated for 24 to 36 hrs by two fold dilution method; assay type: functional; conditions: Lodderomyces parapsilosis
[3] = tested on: Rhodotorula mucilaginosa; assay: Antifungal activity against Rhodotorula pilimanae ATCC 26423 incubated for 24 to 36 hrs by two fold dilution method; assay type: functional
[4] = tested on: Candida tropicalis; assay: Antifungal activity against Candida tropicalis 95-41 incubated for 24 to 36 hrs by two fold dilution method; assay type: functional
[5] = tested on: Diutina rugosa; assay: Antifungal activity against Candida rugosa 95-967 incubated for 24 to 36 hrs by two fold dilution method; assay type: functional
[6] = tested on: Candida albicans; assay: Antifungal activity against Candida albicans B-311 incubated for 24 to 36 hrs by two fold dilution method; assay type: functional
[7] = tested on: Escherichia coli; assay: Antibacterial activity against Escherichia coli ATCC 25922 incubated for 18 hrs by two fold dilution method; assay type: functional; conditions: ATCC 25922, 18 h
[8] = tested on: Cryptococcus neoformans; assay: Antifungal activity against Cryptococcus neoformans VR-54 incubated for 24 to 36 hrs by two fold dilution method; assay type: functional
[9] = tested on: Candida albicans; assay: Antifungal activity against azole-resistant Candida albicans 64124 incubated for 24 to 36 hrs by two fold dilution method; assay type: functional
[10] = tested on: Candida albicans; assay: Antifungal activity against azole-susceptible Candida albicans MYA2876 incubated for 24 to 36 hrs by two fold dilution method; assay type: functional
[11] = tested on: Staphylococcus aureus; assay: Antibacterial activity against methicillin-resistant Staphylococcus aureus ATCC 43300 incubated for 18 hrs by two fold dilution method; assay type: functional; conditions: ATCC 43300, 18 h
[12] = tested on: Cryptococcus neoformans; assay: Antifungal activity against Cryptococcus neoformans H99 incubated for 24 to 36 hrs by two fold dilution method; assay type: functional
[13] = tested on: Fusarium graminearum; assay: Antifungal activity against Fusarium graminearum B4-5A incubated for 24 to 36 hrs by two fold dilution method; assay type: functional
[14] = tested on: Staphylococcus aureus; assay: Antibacterial activity against Staphylococcus aureus ATCC 25923 incubated for 18 hrs by two fold dilution method; assay type: functional; conditions: ATCC 25923, 18 h
[15] = tested on: HeLa; assay: Cytotoxicity against human HeLa cells assessed as reduction in cell viability incubated for 24 hrs by MTT assay; assay type: cell-based

| Compound | MIC [1] [µg/mL] | MIC [2] [µg/mL] | MIC [3] [µg/mL] | MIC [4] [µg/mL] | MIC [5] [µg/mL] | MIC [6] [µg/mL] | MIC [7] [µg/mL] | MIC [8] [µg/mL] | MIC [9] [µg/mL] | MIC [10] [µg/mL] | MIC [11] [µg/mL] | MIC [12] [µg/mL] | MIC [13] [µg/mL] | MIC [14] [µg/mL] | IC50 [15] [µg/mL] |
| --- | --- | --- | --- | --- | --- | --- | --- | --- | --- | --- | --- | --- | --- | --- | --- |
| CCCCCCNC[C@H]1O[C@H](O[C@@H]2[C@@H](O)[C@H](O[C@H]3O[C@H](CN)[C@@H](O)[C@H](O)[C@H]3O)[C@@H](N)C[C@H]2N)[C@H](O)[C@@H](N)[C@@H]1O.Cl.Cl.Cl.Cl.Cl | > 256 | > 256 | 128 | > 256 | > 256 | > 256 | 256 | 128 | > 256 | > 256 | > 256 | 128 | 64 | 64 | – |
| CCCCCCCCSC[C@H]1O[C@H](O[C@@H]2[C@@H](O)[C@H](O[C@H]3O[C@H](CN)[C@@H](O)[C@H](O)[C@H]3O)[C@@H](N)C[C@H]2N)[C@H](O)[C@@H](N)[C@@H]1O.Cl.Cl.Cl.Cl | 256 | > 256 | 32 | > 256 | 256 | > 256 | 128 | 64 | 128 | 256 | 256 | 128 | 128 | 128 | – |
| NC[C@H]1O[C@H](O[C@H]2[C@H](O)[C@@H](O[C@H]3O[C@H](CO)[C@@H](O)[C@H](N)[C@H]3O)[C@H](N)C[C@@H]2N)[C@H](O)[C@@H](O)[C@@H]1O [KANAMYCIN] | > 256 | – | ≥ 256 | – | – | ≥ 256 | 4 (≈ 8.26 µM) | ≥ 256 | ≥ 256 | ≥ 256 | > 256 | – | ≥ 256 | 4 (≈ 8.26 µM) | – |
| CCCCCCCCNC[C@H]1O[C@H](O[C@@H]2[C@@H](O)[C@H](O[C@H]3O[C@H](CN)[C@@H](O)[C@H](O)[C@H]3O)[C@@H](N)C[C@H]2N)[C@H](O)[C@@H](N)[C@@H]1O.Cl.Cl.Cl.Cl.Cl | > 256 | > 256 | 16 | > 256 | > 256 | > 256 | 256 | 16 | 256 | > 256 | 128 | 16 | 32 | 128 | – |
| CCCCCCCCCCCCCCNC[C@H]1O[C@H](O[C@@H]2[C@@H](O)[C@H](O[C@H]3O[C@H](CN)[C@@H](O)[C@H](O)[C@H]3O)[C@@H](N)C[C@H]2N)[C@H](O)[C@@H](N)[C@@H]1O.Cl.Cl.Cl.Cl.Cl | 16 | 4 | 2 | 4 | 4 | 8 | 32 | 2 | 4 | 8 | 16 | 2 | 2 | 16 | 60.8 |
| CCCCCCCCCCSC[C@H]1O[C@H](O[C@@H]2[C@@H](O)[C@H](O[C@H]3O[C@H](CN)[C@@H](O)[C@H](O)[C@H]3O)[C@@H](N)C[C@H]2N)[C@H](O)[C@@H](N)[C@@H]1O.Cl.Cl.Cl.Cl | 64 | 128 | 4 | 128 | 64 | 128 | 64 | 8 | 64 | 64 | 32 | 8 | 32 | 64 | – |
| CCCCCCCCCCCCSC[C@H]1O[C@H](O[C@@H]2[C@@H](O)[C@H](O[C@H]3O[C@H](CN)[C@@H](O)[C@H](O)[C@H]3O)[C@@H](N)C[C@H]2N)[C@H](O)[C@@H](N)[C@@H]1O.Cl.Cl.Cl.Cl | 32 | 32 | 2 | 32 | 16 | 32 | 16 | 2 | 16 | 16 | 16 | 2 | 4 | 32 | > 100 |
| CCCCCCCCCCCCCCCCNC[C@H]1O[C@H](O[C@@H]2[C@@H](O)[C@H](O[C@H]3O[C@H](CN)[C@@H](O)[C@H](O)[C@H]3O)[C@@H](N)C[C@H]2N)[C@H](O)[C@@H](N)[C@@H]1O.Cl.Cl.Cl.Cl.Cl | 32 | 4 | 2 | 4 | 4 | 4 | 32 | 2 | 4 | 8 | 32 | 2 | 2 | 16 | 41.6 |
| CCCCCCCCCCCCCCCCSC[C@H]1O[C@H](O[C@@H]2[C@@H](O)[C@H](O[C@H]3O[C@H](CN)[C@@H](O)[C@H](O)[C@H]3O)[C@@H](N)C[C@H]2N)[C@H](O)[C@@H](N)[C@@H]1O.Cl.Cl.Cl.Cl | 32 | 4 | 2 | 4 | 4 | 4 | 32 | 2 | 4 | 4 | 16 | 2 | 2 | 16 | 37.7 |
| CCCCCCCCS(=O)(=O)OC[C@H]1O[C@H](O[C@@H]2[C@@H](O)[C@H](O[C@H]3O[C@H](CN)[C@@H](O)[C@H](O)[C@H]3O)[C@@H](N)C[C@H]2N)[C@H](O)[C@@H](N)[C@@H]1O | – | 16 (≈ 24.2 µM) | 4 (≈ 6.05 µM) | 16 (≈ 24.2 µM) | 32 (≈ 48.4 µM) | 16 (≈ 24.2 µM) | – | 4 (≈ 6.05 µM) | 16 (≈ 24.2 µM) | 16 (≈ 24.2 µM) | – | 4 (≈ 6.05 µM) | 8 (≈ 12.1 µM) | – | – |
| CCCCCCCCCCCCNC[C@H]1O[C@H](O[C@@H]2[C@@H](O)[C@H](O[C@H]3O[C@H](CN)[C@@H](O)[C@H](O)[C@H]3O)[C@@H](N)C[C@H]2N)[C@H](O)[C@@H](N)[C@@H]1O.Cl.Cl.Cl.Cl.Cl | 64 | 32 | 2 | 32 | 16 | 32 | 16 | 2 | 16 | 64 | 32 | 2 | 2 | 64 | > 100 |
| Cc1ccc(S(=O)(=O)OC[C@H]2O[C@H](O[C@@H]3[C@@H](O)[C@H](O[C@H]4O[C@H](CN)[C@@H](O)[C@H](O)[C@H]4O)[C@@H](N)C[C@H]3N)[C@H](O)[C@@H](N)[C@@H]2O)cc1.Cl.Cl.Cl.Cl | > 256 | > 256 | 128 | > 256 | > 256 | > 256 | 16 | > 256 | > 256 | > 256 | > 256 | > 256 | 128 | 32 | – |
| CCCCCCCCCCNC[C@H]1O[C@H](O[C@@H]2[C@@H](O)[C@H](O[C@H]3O[C@H](CN)[C@@H](O)[C@H](O)[C@H]3O)[C@@H](N)C[C@H]2N)[C@H](O)[C@@H](N)[C@@H]1O.Cl.Cl.Cl.Cl.Cl | 256 | 256 | 8 | > 256 | 256 | 256 | 64 | 8 | 128 | > 256 | 64 | 8 | 32 | 128 | – |
| CCCCCCCCCCCCCCSC[C@H]1O[C@H](O[C@@H]2[C@@H](O)[C@H](O[C@H]3O[C@H](CN)[C@@H](O)[C@H](O)[C@H]3O)[C@@H](N)C[C@H]2N)[C@H](O)[C@@H](N)[C@@H]1O.Cl.Cl.Cl.Cl | 16 | 16 | 2 | 4 | 8 | 8 | 16 | 2 | 4 | 4 | 16 | 2 | 2 | 16 | 52.9 |
| CCCCCCSC[C@H]1O[C@H](O[C@@H]2[C@@H](O)[C@H](O[C@H]3O[C@H](CN)[C@@H](O)[C@H](O)[C@H]3O)[C@@H](N)C[C@H]2N)[C@H](O)[C@@H](N)[C@@H]1O.Cl.Cl.Cl.Cl | > 256 | > 256 | 32 | > 256 | > 256 | > 256 | 128 | 64 | > 256 | > 256 | > 256 | 128 | 256 | 256 | – |
